In brackets after ≈: the same amount, converted by molar mass.
Legend:
[1] = tested on: Rhizopus oryzae; assay: MIC broth microdilution (CLSI); format: cell-based; details: Rhizopus oryzae 04-14-364-1703
Experimental: (§2) Antifungal susceptibility was determined by broth microdilution according to the CLSI guidelines described in M27-Ed4 ([16]).

[2] = tested on: Aspergillus lentulus; assay: MIC broth microdilution (CLSI); format: cell-based; details: Aspergillus lentulus DTO 341-G7
Experimental: as §2

[3] = tested on: 38 species of clinically relevant fungi; assay: MIC summary across 38 species of clinically relevant fungi; format: cell-based; details: 38 fungal species; read-out: GM MIC
From the text: […]; Table S3). […]. […] […]. […] […].

[4] = tested on: Epidermophyton floccosum; assay: checkerboard drug interaction (FICI, MICc);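 also: simplified diagonal checkerboard screen pairing antifungals with FPPS inhibitors, FICI calculated under the Loewe additivity model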
Experimental: (§3) Drug interactions between antifungals and FPPS inhibitors were investigated using a simplified checkerboard diagonal screening method ([45]). […] FICIs were determined according to the Loewe additivity model ([17]).

[5] = tested on: Lomentospora prolificans; assay: MIC broth microdilution (CLSI); format: cell-based; details: Lomentospora prolificans 80-16-101-2445
Experimental: as §2

[6] = tested on: Trichophyton interdigitale; assay: checkerboard drug interaction (FICI, MICc);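 also: simplified diagonal checkerboard screen pairing antifungals with FPPS inhibitors, FICI values calculated under the Loewe additivity model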
Experimental: as §3

[7] = tested on: Trichophyton tonsurans; assay: MIC broth microdilution (CLSI); details: Trichophyton tonsurans R-168
Experimental: as §2

[8] = tested on: Scedosporium apiospermum; assay: MIC broth microdilution (CLSI); format: cell-based; details: Scedosporium apiospermum 04-16-022-2268
Experimental: as §2

[9] = tested on: Fusarium solani; assay: MIC broth microdilution (CLSI); details: Fusarium solani 04-16-056-1862
Experimental: as §2

[10] = tested on: Fusarium oxysporum; assay: MIC broth microdilution (CLSI); format: cell-based; details: Fusarium oxysporum 07-200-3012
Experimental: as §2

[11] = tested on: Trichophyton soudanense; assay: checkerboard drug interaction (FICI, MICc); format: cell-based;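 also: simplified diagonal checkerboard screen pairing antifungals with FPPS inhibitors, FICI computed under the Loewe additivity model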
Experimental: as §3

[12] = tested on: Candida auris; assay: checkerboard drug interaction (FICI, MICc); format: cell-based;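 also: simplified diagonal checkerboard screen pairing antifungals with FPPS inhibitors, with FICI computed under the Loewe additivity model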
Experimental: as §3

[13] = tested on: Cryptococcus deneoformans; assay: checkerboard drug interaction (FICI, MICc); format: cell-based;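 also: simplified diagonal checkerboard screen pairing antifungals with FPPS inhibitors, FICI calculated under the Loewe additivity model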
Experimental: as §3

[14] = tested on: Candida dubliniensis; assay: MIC broth microdilution (CLSI); format: cell-based; details: Candida dubliniensis M230642
Experimental: as §2

[15] = tested on: Candida tropicalis; assay: checkerboard drug interaction (FICI, MICc); format: cell-based;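 also: simplified diagonal checkerboard screen of antifungal plus FPPS inhibitor combinations, with FICI computed by the Loewe additivity model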
Experimental: as §3

[16] = tested on: Candida parapsilosis; assay: MIC broth microdilution (CLSI); format: cell-based; details: Candida parapsilosis ATCC 22018
Experimental: Antifungal susceptibility was determined by broth microdilution according to the CLSI guidelines described in M27-Ed4 ([16]). […] MFC was determined by back-plating drug-treated cultures from MIC broths onto SDA plates. The MFC was defined as the lowest concentration from which no colonies could be cultured.

[17] = tested on: Cryptococcus gattii; assay: MIC broth microdilution (CLSI); format: cell-based; details: Cryptococcus gattii PNG27
Experimental: as §2

[18] = tested on: Mucor circinelloides; assay: checkerboard drug interaction (FICI, MICc); format: cell-based;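 also: simplified diagonal checkerboard screen pairing antifungals with FPPS inhibitors, FICI calculated under the Loewe additivity model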
Experimental: as §3

[19] = tested on: Rhizopus oryzae; assay: checkerboard drug interaction (FICI, MICc); format: cell-based;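 also: simplified diagonal checkerboard screen pairing antifungals with FPPS inhibitors, FICI calculated under the Loewe additivity model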
Experimental: as §3

[20] = tested on: Cryptococcus tetragattii; assay: checkerboard drug interaction (FICI, MICc); format: cell-based;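 also: simplified diagonal checkerboard screen pairing antifungals with FPPS inhibitors, with FICI calculated under the Loewe additivity model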
Experimental: as §3

[21] = tested on: Aspergillus frankstonensis; assay: checkerboard drug interaction (FICI, MICc);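 also: simplified diagonal checkerboard screen pairing antifungals with FPPS inhibitors, FICI calculated using the Loewe additivity model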
Experimental: as §3

[22] = tested on: Klebsiella pneumoniae; assay: antibacterial MIC; format: cell-based
From the text: (§1) […]; Table S3). […]. […] […].

[23] = tested on: Acinetobacter baumanii; assay: antibacterial MIC; format: cell-based; details: Acinetobacter baumannii
From the text: as §1

[24] = tested on: Lomentospora prolificans; assay: checkerboard drug interaction (FICI, MICc)
Experimental: as §3

O=P(O)(O)C(O)(Cn1ccnc1)P(=O)(O)O [ZOL, zoledronate]
MIC / MEC [1]: >256 µg/mL | MIC / MEC [2]: >256 µg/mL | MIC [3]: 148 ± 176 µg/mL (≈ 544 µM) | FICI ([4]; 5FC:ZOL): 1.5 | FICI ([4]; AMB:ZOL): 1 | FICI ([4]; CAS:ZOL): 2.17 | FICI ([4]; FLC:ZOL): 0.63 | FICI ([4]; ITR:ZOL): 0.63 | FICI ([4]; KET:ZOL): 0.5 | FICI ([4]; VOR:ZOL): 1.13 | bisphosphonate MICc ([4]; ZOL with 5FC): 64 | bisphosphonate MICc ([4]; ZOL with AMB): 32 | bisphosphonate MICc ([4]; ZOL with CAS): 16 | bisphosphonate MICc ([4]; ZOL with FLC): 8 | bisphosphonate MICc ([4]; ZOL with ITR): 8 | bisphosphonate MICc ([4]; ZOL with KET): 16 | bisphosphonate MICc ([4]; ZOL with VOR): 8 | MIC / MEC [5]: >256 µg/mL | FICI ([6]; 5FC:ZOL): 2 | FICI ([6]; AMB:ZOL): 3 | FICI ([6]; CAS:ZOL): 1.25 | FICI ([6]; FLC:ZOL): 0.5 | FICI ([6]; ITR:ZOL): 0.27 | FICI ([6]; KET:ZOL): 0.5 | FICI ([6]; VOR:ZOL): 0.38 | bisphosphonate MICc ([6]; ZOL with 5FC): 256 | bisphosphonate MICc ([6]; ZOL with AMB): 256 | bisphosphonate MICc ([6]; ZOL with CAS): 64 | bisphosphonate MICc ([6]; ZOL with FLC): 64 | bisphosphonate MICc ([6]; ZOL with ITR): 4 | bisphosphonate MICc ([6]; ZOL with KET): 64 | bisphosphonate MICc ([6]; ZOL with VOR): 32 | MIC / MEC [7]: 128 µg/mL (≈ 470 µM) | MIC / MEC [8]: 256 µg/mL (≈ 941 µM) | MIC / MEC [9]: 256 µg/mL (≈ 941 µM) | MIC / MEC [10]: >256 µg/mL | FICI ([11]; 5FC:ZOL): 3 | FICI ([11]; AMB:ZOL): 3 | FICI ([11]; CAS:ZOL): 3 | FICI ([11]; FLC:ZOL): 0.75 | FICI ([11]; ITR:ZOL): 0.75 | FICI ([11]; KET:ZOL): 0.38 | FICI ([11]; VOR:ZOL): 0.49 | bisphosphonate MICc ([11]; ZOL with 5FC): 128 | bisphosphonate MICc ([11]; ZOL with AMB): 128 | bisphosphonate MICc ([11]; ZOL with CAS): 64 | bisphosphonate MICc ([11]; ZOL with FLC): 16 | bisphosphonate MICc ([11]; ZOL with ITR): 16 | bisphosphonate MICc ([11]; ZOL with KET): 8 | bisphosphonate MICc ([11]; ZOL with VOR): 16 | FICI ([12]; 5FC:ZOL): 1.5 | FICI ([12]; AMB:ZOL): 1.13 | FICI ([12]; CAS:ZOL): 1.25 | FICI ([12]; FLC:ZOL): 0.38 | FICI ([12]; ITR:ZOL): 0.63 | FICI ([12]; KET:ZOL): 0.5 | FICI ([12]; VOR:ZOL): 0.63 | bisphosphonate MICc ([12]; ZOL with 5FC): 128 | bisphosphonate MICc ([12]; ZOL with AMB): 16 | bisphosphonate MICc ([12]; ZOL with CAS): 32 | bisphosphonate MICc ([12]; ZOL with FLC): 32 | bisphosphonate MICc ([12]; ZOL with ITR): 16 | bisphosphonate MICc ([12]; ZOL with KET): 32 | bisphosphonate MICc ([12]; ZOL with VOR): 16 | FICI ([13]; 5FC:ZOL): 0.38 | FICI ([13]; AMB:ZOL): 0.63 | FICI ([13]; CAS:ZOL): 1 | FICI ([13]; FLC:ZOL): 0.5 | FICI ([13]; ITR:ZOL): 2.09 | FICI ([13]; KET:ZOL): 0.37 | FICI ([13]; VOR:ZOL): 1.54 | bisphosphonate MICc ([13]; ZOL with 5FC): 16 | bisphosphonate MICc ([13]; ZOL with AMB): 16 | bisphosphonate MICc ([13]; ZOL with CAS): 64 | bisphosphonate MICc ([13]; ZOL with FLC): 32 | bisphosphonate MICc ([13]; ZOL with ITR): 1 | bisphosphonate MICc ([13]; ZOL with KET): 16 | bisphosphonate MICc ([13]; ZOL with VOR): 64 | MIC / MEC [14]: 4 µg/mL (≈ 14.7 µM) | FICI ([15]; 5FC:ZOL): 0.75 | FICI ([15]; AMB:ZOL): 2 | FICI ([15]; CAS:ZOL): 0.4 | FICI ([15]; FLC:ZOL): 0.31 | FICI ([15]; ITR:ZOL): 0.31 | FICI ([15]; KET:ZOL): 0.31 | FICI ([15]; VOR:ZOL): 0.49 | bisphosphonate MICc ([15]; ZOL with 5FC): 64 | bisphosphonate MICc ([15]; ZOL with AMB): 128 | bisphosphonate MICc ([15]; ZOL with CAS): 8 | bisphosphonate MICc ([15]; ZOL with FLC): 32 | bisphosphonate MICc ([15]; ZOL with ITR): 16 | bisphosphonate MICc ([15]; ZOL with KET): 32 | bisphosphonate MICc ([15]; ZOL with VOR): 1 | MIC / MEC [16]: 128 µg/mL (≈ 470 µM) | MIC / MEC [17]: 128 µg/mL (≈ 470 µM) | FICI ([18]; 5FC:ZOL): ≥4 | FICI ([18]; AMB:ZOL): 3 | FICI ([18]; CAS:ZOL): 1 | FICI ([18]; FLC:ZOL): 0.38 | FICI ([18]; ITR:ZOL): 0.25 | FICI ([18]; KET:ZOL): 0.75 | FICI ([18]; VOR:ZOL): 0.63 | bisphosphonate MICc ([18]; ZOL with 5FC): 64 | bisphosphonate MICc ([18]; ZOL with AMB): 128 | bisphosphonate MICc ([18]; ZOL with CAS): 32 | bisphosphonate MICc ([18]; ZOL with FLC): 16 | bisphosphonate MICc ([18]; ZOL with ITR): 8 | bisphosphonate MICc ([18]; ZOL with KET): 16 | bisphosphonate MICc ([18]; ZOL with VOR): 8 | FICI ([19]; 5FC:ZOL): 3 | FICI ([19]; AMB:ZOL): 1.13 | FICI ([19]; CAS:ZOL): 0.63 | FICI ([19]; FLC:ZOL): 1 | FICI ([19]; ITR:ZOL): 1.02 | FICI ([19]; KET:ZOL): 0.63 | FICI ([19]; VOR:ZOL): 0.52 | bisphosphonate MICc ([19]; ZOL with 5FC): 512 | bisphosphonate MICc ([19]; ZOL with AMB): 64 | bisphosphonate MICc ([19]; ZOL with CAS): 256 | bisphosphonate MICc ([19]; ZOL with FLC): 256 | bisphosphonate MICc ([19]; ZOL with ITR): 8 | bisphosphonate MICc ([19]; ZOL with KET): 64 | bisphosphonate MICc ([19]; ZOL with VOR): 8 | FICI ([20]; 5FC:ZOL): 1.13 | FICI ([20]; AMB:ZOL): 1.25 | FICI ([20]; CAS:ZOL): 2.5 | FICI ([20]; FLC:ZOL): 0.5 | FICI ([20]; ITR:ZOL): 2.06 | FICI ([20]; KET:ZOL): 0.75 | FICI ([20]; VOR:ZOL): 1.46 | bisphosphonate MICc ([20]; ZOL with 5FC): 64 | bisphosphonate MICc ([20]; ZOL with AMB): 64 | bisphosphonate MICc ([20]; ZOL with CAS): 32 | bisphosphonate MICc ([20]; ZOL with FLC): 16 | bisphosphonate MICc ([20]; ZOL with ITR): 4 | bisphosphonate MICc ([20]; ZOL with KET): 16 | bisphosphonate MICc ([20]; ZOL with VOR): 32 | FICI ([21]; 5FC:ZOL): ≥4 | FICI ([21]; AMB:ZOL): 2 | FICI ([21]; CAS:ZOL): ≥4 | FICI ([21]; FLC:ZOL): 0.56 | FICI ([21]; ITR:ZOL): 1.25 | FICI ([21]; KET:ZOL): 1 | FICI ([21]; VOR:ZOL): 1.13 | bisphosphonate MICc ([21]; ZOL with 5FC): 256 | bisphosphonate MICc ([21]; ZOL with AMB): 128 | bisphosphonate MICc ([21]; ZOL with CAS): 256 | bisphosphonate MICc ([21]; ZOL with FLC): 8 | bisphosphonate MICc ([21]; ZOL with ITR): 32 | bisphosphonate MICc ([21]; ZOL with KET): 64 | bisphosphonate MICc ([21]; ZOL with VOR): 16 | MIC [22]: 256 µg/mL (≈ 941 µM) | MIC [23]: > 256 µg/mL | FICI ([24]; 5FC:ZOL): 2.5 | FICI ([24]; AMB:ZOL): 0.75 | FICI ([24]; CAS:ZOL): 3 | FICI ([24]; FLC:ZOL): 1.13 | FICI ([24]; ITR:ZOL): 0.63 | FICI ([24]; KET:ZOL): 1 | FICI ([24]; VOR:ZOL): 1.06 | bisphosphonate MICc ([24]; ZOL with 5FC): 256 | bisphosphonate MICc ([24]; ZOL with AMB): 256 | bisphosphonate MICc ([24]; ZOL with CAS): 512 | bisphosphonate MICc ([24]; ZOL with FLC): 64 | bisphosphonate MICc ([24]; ZOL with ITR): 64 | bisphosphonate MICc ([24]; ZOL with KET): 256 | bisphosphonate MICc ([24]; ZOL with VOR): 32
